Data from patent US20240329043A1, “METHOD FOR STRATIFICATION AND TREATMENT OF MULTIPLE SCLEROSIS” (Universität Zurich, priority 2021, published 2024).

Experiments:
[1] = tested on: CSF-infiltrating CD4+ T cells from MS patients; settings: peptide 10 μM; 105 MS patients, quadruplicates; well positive if IFN-γ≥20 pg/ml
Procedure: 6×10^4 PHA-expanded CSF-infiltrating CD4^+ T cells were seeded in quadruplicate with 2×10^5 irradiated autologous PBMCs as antigen presenting cells and stimulated with peptides (Table 2) at a final concentration of 10 μM and with a T Cell Activation Kit (anti-CD3, anti-CD28, anti-CD2 beads) (Miltenyi Biotec) as positive control.
(§1) Release of IFN-γ was measured using the ELISA MAX™ Deluxe Set Human IFN-γ (Biolegend, San Diego, CA, USA) according to the manufacturer's instructions. A well was considered positive if IFN-γ≥20 pg/ml and a patient was considered positive for a peptide if the mean IFN-γ of the four wells was ≥20 pg/ml and at least 3 of the 4 wells were positive.

[2] = tested on: CSF-infiltrating CD4+ T cells from MS patients; settings: peptide 10 μM, 105 MS patients; for Positive wells % Proliferation: quadruplicates (420 wells per peptide), well positive if SI≥2, 72 h; for Positive patients % Proliferation: patient positive if mean SI of four wells ≥2 and at least 3 of four wells SI≥2
Procedure: CSF-infiltrating CD4+ T cells were expanded with PHA in a single round of stimulation using a previously reported protocol aimed to reduce TCR repertoire bias (Planas et al., 2008, Sci Transl Med, 10(462):eaat4301). 6×10^4 PHA-expanded CSF-infiltrating CD4^+ T cells were seeded in quadruplicate with 2×10^5 irradiated autologous PBMCs as antigen presenting cells and stimulated with peptides (Table 2) at a final concentration of 10 μM and with a T Cell Activation Kit (anti-CD3, anti-CD28, anti-CD2 beads) (Miltenyi Biotec) as positive control.
(§2) Proliferation was measured 72 h after stimulation using 3H-thymidine (Hartmann Analytic, Braunschweig, Germany) as previously reported (Planas et al., 2018). The stimulation index of single wells (SI) was calculated as follows: SI=(cpm well with peptide)/(Mean cpm wells without peptide). A well was considered positive if SI≥2.

[3] = tested on: CSF-infiltrating CD4+ T cells from MS patients; assay: Reactivity of CSF-infiltrating CD4+ T cells by proliferation and/or IFN-γ release taken together (responder classification, comparison of readouts); settings: of 105 MS patients; main or only reactivity in proliferation and/or IFN-γ release
Procedure: PBMCs were freshly isolated using Ficoll (Eurobio, Germany) density gradient centrifugation. CSF-infiltrating CD4+ T cells were expanded with PHA in a single round of stimulation using a previously reported protocol aimed to reduce TCR repertoire bias (Planas et al., 2008, Sci Transl Med, 10(462):eaat4301). 6×10^4 PHA-expanded CSF-infiltrating CD4^+ T cells were seeded in quadruplicate with 2×10^5 irradiated autologous PBMCs as antigen presenting cells and stimulated with peptides (Table 2) at a final concentration of 10 μM and with a T Cell Activation Kit (anti-CD3, anti-CD28, anti-CD2 beads) (Miltenyi Biotec) as positive control.
as §2, §1

Row | Sequence | Positive wells % IFNγ release [1] [%] | Positive wells % Proliferation [2] [%] | Positive patients % Proliferation [2] [%] | Patients classified as responders to the peptide(s) [3] [%]
1 | MEVGWYRPPFSRVVHLYRNGK (listed as Homo sapiens) [MOG (35-55)] | 13.49 | 3.61 | 1.92 | 10.4
2 | AQGTLSKIFKLGGRDSRSGSPMARR (listed as Homo sapiens) [MBP (146-170)] | 3.86 | 0.72 | 0.00 | 
3 | PHNSNFGYSYAKRMI (listed as Homo sapiens) [GDP-L-FS (136-150)] | 8.35 | 7.14 | 5.71 | 
4 | EEDEVSIKEAAEAVV (listed as Homo sapiens) [GDP-L-FS (246-260)] | 8.85 | 6.90 | 4.76 | 
5 | YGCTFTAVIPTNVFG (listed as Homo sapiens) [GDP-L-FS (161-175)] | 6.92 | 7.38 | 6.66 | 
6 | GQFRVIGPRHPIRALVGDEV (listed as Homo sapiens) [MOG (1-20)] | 4.58 | 1.20 | 0.00 | 
7 | LSRFSWGAEGQRPGFGYGG (listed as Homo sapiens) [MBP (111-129)] | 6.75 | 1.20 | 0.96 | 
8 | TAQTRALFEKVQPTH (listed as Homo sapiens) [GDP-L-FS (51-65)] | 7.16 | 5.48 | 3.80 | 
9 | HCLGKWLGHPDKFVGI (listed as Homo sapiens) [PLP (139-154)] | 3.86 | 1.92 | 0.96 | 
10 | KYLATASTMDHARHGFLPRH (listed as Homo sapiens) [MBP (13-32)] | 4.34 | 0.72 | 0.00 | 
11 | FRFTPFKQAVKETCA (listed as Homo sapiens) [GDP-L-FS (296-310)] | 12.65 | 6.43 | 4.76 | 
